{"source": "ChEMBL document CHEMBL1201862", "about": "“PubChem BioAssay data set” (2004)", "key": {"Estrogen receptor": {"biological_target": "T1, Estrogen receptor (Homo sapiens, UniProt P03372)", "T1 sequence (P03372 whole entry)": "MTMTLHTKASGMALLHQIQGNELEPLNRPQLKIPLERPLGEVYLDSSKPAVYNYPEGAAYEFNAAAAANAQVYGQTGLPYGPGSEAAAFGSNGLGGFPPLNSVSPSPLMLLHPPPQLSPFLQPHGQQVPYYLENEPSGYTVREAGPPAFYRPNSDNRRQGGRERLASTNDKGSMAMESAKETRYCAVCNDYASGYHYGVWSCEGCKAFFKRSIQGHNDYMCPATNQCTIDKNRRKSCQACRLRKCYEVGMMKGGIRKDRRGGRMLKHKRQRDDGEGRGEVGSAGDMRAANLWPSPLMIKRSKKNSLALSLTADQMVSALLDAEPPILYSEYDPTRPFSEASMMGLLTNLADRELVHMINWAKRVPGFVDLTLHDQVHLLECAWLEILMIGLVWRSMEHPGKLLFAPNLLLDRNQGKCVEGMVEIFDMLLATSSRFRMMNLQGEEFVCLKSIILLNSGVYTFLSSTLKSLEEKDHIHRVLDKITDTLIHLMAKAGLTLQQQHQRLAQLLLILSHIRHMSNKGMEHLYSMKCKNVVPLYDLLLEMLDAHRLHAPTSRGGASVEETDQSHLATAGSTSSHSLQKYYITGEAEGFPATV"}, "[1]": {"experiment": "cytotoxicity in HEK-293T cells, dose response, cytotoxicity control for BCR NF-kB inhibitor project, luminescence, B-cell screen hits (AID 489021);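 further: cells exposed to compound for about 14 hours before viability readout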", "assay_type": "functional, cell-based"}, "Genome polyprotein": {"biological_target": "Genome polyprotein (dengue virus type 2, UniProt P29990)", "sequence (P29990 2492-3391 limits assumed)": "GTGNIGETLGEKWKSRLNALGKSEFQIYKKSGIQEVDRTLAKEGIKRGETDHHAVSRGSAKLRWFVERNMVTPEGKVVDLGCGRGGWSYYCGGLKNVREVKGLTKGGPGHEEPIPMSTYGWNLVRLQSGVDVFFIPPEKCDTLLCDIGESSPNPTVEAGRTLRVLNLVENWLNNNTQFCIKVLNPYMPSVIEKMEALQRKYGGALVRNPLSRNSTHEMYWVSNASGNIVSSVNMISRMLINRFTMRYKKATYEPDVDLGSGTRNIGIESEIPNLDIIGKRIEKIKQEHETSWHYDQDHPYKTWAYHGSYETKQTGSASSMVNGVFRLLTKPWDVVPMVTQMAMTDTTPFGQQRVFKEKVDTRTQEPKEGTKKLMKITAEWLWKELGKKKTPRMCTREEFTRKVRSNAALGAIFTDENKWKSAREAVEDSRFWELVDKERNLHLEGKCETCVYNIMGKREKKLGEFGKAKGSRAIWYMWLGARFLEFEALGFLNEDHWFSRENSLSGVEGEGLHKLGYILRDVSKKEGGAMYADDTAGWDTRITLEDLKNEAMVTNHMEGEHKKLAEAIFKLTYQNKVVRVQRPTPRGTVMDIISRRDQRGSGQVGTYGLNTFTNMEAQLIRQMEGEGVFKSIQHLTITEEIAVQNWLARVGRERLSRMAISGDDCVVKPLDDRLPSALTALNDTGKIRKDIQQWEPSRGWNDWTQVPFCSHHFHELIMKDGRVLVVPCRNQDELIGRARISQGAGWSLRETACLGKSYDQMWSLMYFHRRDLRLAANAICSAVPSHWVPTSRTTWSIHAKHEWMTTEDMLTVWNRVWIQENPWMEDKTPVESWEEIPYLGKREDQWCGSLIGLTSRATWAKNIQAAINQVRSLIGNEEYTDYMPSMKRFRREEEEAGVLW", "experiment": "Dengue-2 NS5 methyltransferase inhibitors, primary screen, biochemical, confirmation dose response (AID 588689)", "assay_type": "functional"}, "INS1": {"test_system": "INS1", "experiment": "beta cell apoptosis inhibitors, cytokine rescue, dose response, luminescence, retest (AID 449756);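 further: cell death triggered by IL-1 beta plus TNF-alpha plus IFN-gamma mixture; protective hits raise ATP signal compared with cytokine alone wells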", "assay_type": "functional, cell-based", "settings": "Rattus norvegicus"}, "[2]": {"experiment": "Shn3 3'UTR reporter inhibitors, dose response, cell-based, Clone20 osteoblasts, firefly luciferase, cherry-picked (AID 624132)", "assay_type": "functional"}, "[3]": {"experiment": "HepG2 cell cytotoxicity, dose response, cytotoxicity control for Shn3 inhibitor project, CellTiter-Glo, cherry-picked (AID 624134)", "assay_type": "functional, cell-based"}, "[4]": {"biological_target": "72 kDa type IV collagenase (Homo sapiens, UniProt P08253)", "sequence (P08253 whole entry)": "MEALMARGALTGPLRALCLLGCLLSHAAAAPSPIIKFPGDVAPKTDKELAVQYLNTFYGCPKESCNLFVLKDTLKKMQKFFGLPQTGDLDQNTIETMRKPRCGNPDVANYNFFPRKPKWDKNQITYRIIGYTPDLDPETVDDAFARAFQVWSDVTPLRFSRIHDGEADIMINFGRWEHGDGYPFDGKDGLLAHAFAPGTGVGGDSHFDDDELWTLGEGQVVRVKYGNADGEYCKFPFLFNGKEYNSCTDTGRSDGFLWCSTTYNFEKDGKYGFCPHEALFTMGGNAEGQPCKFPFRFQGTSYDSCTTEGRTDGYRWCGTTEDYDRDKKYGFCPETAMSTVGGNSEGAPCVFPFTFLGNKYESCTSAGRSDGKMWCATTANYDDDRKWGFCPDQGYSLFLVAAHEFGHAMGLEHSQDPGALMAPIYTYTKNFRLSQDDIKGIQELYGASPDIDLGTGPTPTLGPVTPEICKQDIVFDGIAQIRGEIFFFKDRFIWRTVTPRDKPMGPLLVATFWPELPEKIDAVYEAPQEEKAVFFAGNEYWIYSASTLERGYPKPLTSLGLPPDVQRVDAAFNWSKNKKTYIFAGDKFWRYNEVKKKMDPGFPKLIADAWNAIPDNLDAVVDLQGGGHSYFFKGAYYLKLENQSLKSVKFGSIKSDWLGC", "experiment": "Dose Response validation of uHTS RPN11 inhibitor hits using a MMP-2 Fluorescence assay.", "assay_type": "functional"}, "[5]": {"biological_target": "26S proteasome non-ATPase regulatory subunit 14 (Homo sapiens, UniProt O00487)", "sequence (O00487 whole entry)": "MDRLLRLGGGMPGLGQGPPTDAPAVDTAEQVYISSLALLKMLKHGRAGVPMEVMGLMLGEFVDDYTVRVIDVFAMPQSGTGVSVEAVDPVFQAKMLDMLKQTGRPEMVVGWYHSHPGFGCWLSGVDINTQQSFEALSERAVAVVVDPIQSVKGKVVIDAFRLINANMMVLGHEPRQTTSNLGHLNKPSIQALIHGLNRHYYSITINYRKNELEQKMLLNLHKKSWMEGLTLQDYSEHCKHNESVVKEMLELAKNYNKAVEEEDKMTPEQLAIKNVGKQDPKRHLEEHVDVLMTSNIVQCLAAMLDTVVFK", "experiment": "inhibition of proteasome subunit RPN11 – biochemical, fluorescence polarization, uHTS hits, confirmation (AID 602368)", "assay_type": "functional"}, "[6]": {"experiment": "control 3'UTR Renilla luciferase suppression, dose response, counter-screen for Shn3 inhibitor project, cell-based, Clone20-Shn3RL, cherry-picked (AID 624133)", "assay_type": "functional"}, "Prothrombin": {"biological_target": "Prothrombin (Bos taurus, UniProt P00735)", "experiment": "thrombin inhibition, dose response, biochemical, fluorescence polarization, uHTS hits (AID 602369)", "assay_type": "functional"}, "Cytochrome P450 2C19": {"biological_target": "Cytochrome P450 2C19 (Homo sapiens, UniProt P33261)", "sequence (P33261 whole entry)": "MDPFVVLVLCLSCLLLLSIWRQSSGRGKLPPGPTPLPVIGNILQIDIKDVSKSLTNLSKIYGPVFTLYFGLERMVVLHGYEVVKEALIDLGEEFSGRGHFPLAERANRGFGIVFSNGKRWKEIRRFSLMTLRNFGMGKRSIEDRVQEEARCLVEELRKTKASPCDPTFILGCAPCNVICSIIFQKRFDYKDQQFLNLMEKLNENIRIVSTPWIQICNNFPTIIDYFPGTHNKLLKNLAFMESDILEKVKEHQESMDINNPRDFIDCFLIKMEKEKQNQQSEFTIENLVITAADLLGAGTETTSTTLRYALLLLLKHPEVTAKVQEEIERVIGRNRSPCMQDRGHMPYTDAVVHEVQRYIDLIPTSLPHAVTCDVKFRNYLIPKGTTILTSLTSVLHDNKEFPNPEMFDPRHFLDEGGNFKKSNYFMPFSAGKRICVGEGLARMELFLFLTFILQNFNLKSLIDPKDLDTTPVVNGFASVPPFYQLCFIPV", "experiment": "Cytochrome panel assay with activity outcomes. Panel member name: p450-cyp2c19 Compounds with AC50 equal or less than 10 uM are considered active", "assay_type": "functional", "settings": "read-out: AC50"}, "[7]": {"biological_target": "Voltage-dependent T-type calcium channel subunit alpha-1H (Homo sapiens, UniProt O95180)", "assay_type": "functional"}, "Cytochrome P450 2C9": {"biological_target": "Cytochrome P450 2C9 (Homo sapiens, UniProt P11712)", "sequence (P11712 whole entry)": "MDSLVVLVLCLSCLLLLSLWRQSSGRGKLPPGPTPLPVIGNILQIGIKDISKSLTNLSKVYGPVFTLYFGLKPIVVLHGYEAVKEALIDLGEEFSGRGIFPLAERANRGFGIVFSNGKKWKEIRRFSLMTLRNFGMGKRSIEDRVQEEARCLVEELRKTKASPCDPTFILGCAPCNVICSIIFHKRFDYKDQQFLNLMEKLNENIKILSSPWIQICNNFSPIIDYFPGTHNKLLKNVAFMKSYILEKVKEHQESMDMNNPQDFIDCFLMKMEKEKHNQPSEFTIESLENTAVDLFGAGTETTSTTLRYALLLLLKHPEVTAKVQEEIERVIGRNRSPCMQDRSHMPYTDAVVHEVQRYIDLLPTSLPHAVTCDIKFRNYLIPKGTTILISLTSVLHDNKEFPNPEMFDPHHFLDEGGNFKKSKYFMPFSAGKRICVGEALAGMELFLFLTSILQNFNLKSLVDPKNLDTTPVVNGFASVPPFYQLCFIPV"}, "[8]": {"biological_target": "T2, Endoribonuclease toxin MazF (Escherichia coli K-12, UniProt P0AE70)", "T2 sequence (P0AE70 whole entry)": "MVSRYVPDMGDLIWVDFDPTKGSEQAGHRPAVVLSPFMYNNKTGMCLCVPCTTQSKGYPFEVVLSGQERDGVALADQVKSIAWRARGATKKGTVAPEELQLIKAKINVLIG", "experiment": "MazF toxin RNase activators, dose response, biochemical, fluorescence, single-stranded RNA substrate, uHTS hits (AID 588481)", "assay_type": "functional"}, "[9]": {"biological_target": "T2, Endoribonuclease toxin MazF", "experiment": "fluorescent RNA oligo signal without MazF, dose response, counter-screen for MazEF activator project, biochemical, fluorescence, single-stranded RNase substrate (AID 588502)", "assay_type": "functional"}, "Cytochrome P450 1A2": {"biological_target": "T3, Cytochrome P450 1A2 (Homo sapiens, UniProt P05177)", "T3 sequence (P05177 whole entry)": "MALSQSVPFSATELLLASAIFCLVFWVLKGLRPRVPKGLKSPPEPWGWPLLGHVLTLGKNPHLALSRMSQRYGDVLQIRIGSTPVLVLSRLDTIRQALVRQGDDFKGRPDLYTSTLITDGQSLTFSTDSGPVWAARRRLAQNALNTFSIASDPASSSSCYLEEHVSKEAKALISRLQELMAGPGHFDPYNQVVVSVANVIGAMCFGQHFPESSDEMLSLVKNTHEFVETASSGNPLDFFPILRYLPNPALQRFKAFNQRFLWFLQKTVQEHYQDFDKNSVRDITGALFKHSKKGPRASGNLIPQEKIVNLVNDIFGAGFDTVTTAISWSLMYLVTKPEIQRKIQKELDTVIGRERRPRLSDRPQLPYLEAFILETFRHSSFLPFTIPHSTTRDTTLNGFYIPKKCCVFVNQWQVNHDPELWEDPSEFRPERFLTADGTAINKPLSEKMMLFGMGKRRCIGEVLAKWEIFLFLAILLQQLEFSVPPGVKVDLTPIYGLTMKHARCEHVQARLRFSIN"}}, "note": "Activity calls are given as the source filed them.", "data": [{"smiles": "COC(=O)c1ccc2c(=O)n(CCCCCC(=O)NCc3ccc4c(c3)OCO4)c(=O)[nH]c2c1", "values": [{"measurement": "IC50", "setting": "Estrogen receptor", "result": "14.8 µM (active)"}]}, {"smiles": "Cc1c(CCO)c(O)oc2nnc(-c3ccccc3)c1-2", "values": [{"measurement": "IC50", "setting": "[1]", "result": "> 80 µM (inactive)"}]}, {"smiles": "O=C1NN(c2ccccc2)C(=O)/C1=C\\c1cccc(OC(=O)c2cccs2)c1", "values": [{"measurement": "IC50", "setting": "Genome polyprotein", "result": "21.2 µM (active)"}]}, {"smiles": "O=[N+]([O-])c1ccc(Sc2cccc3cccnc23)c([N+](=O)[O-])c1", "values": [{"measurement": "AC50", "setting": "INS1", "result": "1.18 µM (active)"}, {"measurement": "AC50", "setting": "[2]", "result": "1.71 µM (active)"}, {"measurement": "AC50", "setting": "[3]", "result": "> 70 µM (inactive)"}, {"measurement": "IC50", "setting": "[4]", "result": "> 100 µM (inactive)"}, {"measurement": "IC50", "setting": "[5]", "result": "27.6 µM (active)"}, {"measurement": "AC50", "setting": "[6]", "result": "15.2 µM (active)"}, {"measurement": "IC50", "setting": "Prothrombin", "result": "> 100 µM (inactive)"}]}, {"smiles": "Cn1c(=O)cc(OCC(=O)N2CCC3(CC2)OCCO3)c2ccccc21", "values": [{"measurement": "IC50", "setting": "[1]", "result": "> 80 µM (inactive)"}]}, {"smiles": "CC(NC(=O)CCSc1nc(-c2ccc3c(c2)OCO3)cc(C(F)(F)F)n1)c1ccccc1", "note": "(stereo not given)", "values": [{"measurement": "IC50", "setting": "Estrogen receptor", "result": "> 50 µM (not active)"}, {"measurement": "AC50", "setting": "Cytochrome P450 2C19", "result": "0.398 µM (inconclusive)"}, {"measurement": "EC50", "setting": "[7]", "result": "7.03 µM (active)"}]}, {"smiles": "Brc1ccc2cccnc2c1", "values": [{"measurement": "AC50", "setting": "Cytochrome P450 2C9", "result": "inconclusive"}, {"measurement": "AC50", "setting": "Cytochrome P450 2C19", "result": "0.316 µM (inconclusive)"}]}, {"smiles": "Cn1c(=O)n(C)c2cc(NC(=O)CSc3nnc(-c4ccccc4O)n3-c3ccccc3)ccc21", "values": [{"measurement": "IC50", "setting": "[1]", "result": "> 80 µM (inactive)"}]}, {"smiles": "CCc1cccc(CC)c1NC(=O)COC(=O)/C(C#N)=C/c1ccc(OC)cc1", "values": [{"measurement": "EC50", "setting": "[8]", "result": "> 99 µM (inactive)"}, {"measurement": "EC50", "setting": "[9]", "result": "> 99 µM (inactive)"}]}, {"smiles": "Cc1ccc(/C=C2/C(=O)NC(=O)N(CC3CCCO3)C2=O)s1", "note": "(stereo not given)", "values": [{"measurement": "IC50", "setting": "Genome polyprotein", "result": "> 100 µM (active)"}]}, {"smiles": "C=CCNc1nc(-c2cccc(OC)c2O)nc2ccccc12", "values": [{"measurement": "IC50", "setting": "Estrogen receptor", "result": "> 50 µM (not active)"}]}, {"smiles": "CC1(C)CC2(CC(C)(C(=O)CSc3nc4ccccc4s3)OC2=O)C(=O)O1", "note": "(stereo not given)", "values": [{"measurement": "AC50", "setting": "Cytochrome P450 1A2", "result": "28.2 µM (inconclusive)"}, {"measurement": "AC50", "setting": "Cytochrome P450 2C9", "result": "inconclusive"}, {"measurement": "AC50", "setting": "Cytochrome P450 2C19", "result": "8.91 µM (inconclusive)"}]}, {"smiles": "C#CCOc1c(Br)cc(/C=C2/C(=O)ON=C2C)cc1OC", "values": [{"measurement": "IC50", "setting": "Genome polyprotein", "result": "> 100 µM (active)"}]}]}
